Results as given in US20240368120A1 (Terns Pharmaceuticals, Inc., priority 2023, published 2024).

Molecular target: T1, human GLP-1R receptor (Homo sapiens, UniProt P43220)
T1 construct: expressed in transfected cells
Assay: GLP-1R low expression cell assay (cAMP TR-FRET, CHO-K1_hGLP-1Rlow_clone10 cells)
Type: cell-based
Conditions: for EC50: cAMP TR-FRET, 30 min at 25° C.; for Emax: maximum activation relative to control GLP-1 peptide agonist
In short: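 CHO-K1 cells stably expressing low surface human GLP-1R (clone10), 1,000 cells/well, exposed to 10-point 3-fold compound dilutions for 30 min at 25 °C. cAMP measured by TR-FRET (Eu-cAMP tracer/ULight-anti-cAMP, 15 min). EC50 from Hill fit of duplicate percent activation relative to a parallel GLP-1 control agonist.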

T1 sequence (P43220 24-463): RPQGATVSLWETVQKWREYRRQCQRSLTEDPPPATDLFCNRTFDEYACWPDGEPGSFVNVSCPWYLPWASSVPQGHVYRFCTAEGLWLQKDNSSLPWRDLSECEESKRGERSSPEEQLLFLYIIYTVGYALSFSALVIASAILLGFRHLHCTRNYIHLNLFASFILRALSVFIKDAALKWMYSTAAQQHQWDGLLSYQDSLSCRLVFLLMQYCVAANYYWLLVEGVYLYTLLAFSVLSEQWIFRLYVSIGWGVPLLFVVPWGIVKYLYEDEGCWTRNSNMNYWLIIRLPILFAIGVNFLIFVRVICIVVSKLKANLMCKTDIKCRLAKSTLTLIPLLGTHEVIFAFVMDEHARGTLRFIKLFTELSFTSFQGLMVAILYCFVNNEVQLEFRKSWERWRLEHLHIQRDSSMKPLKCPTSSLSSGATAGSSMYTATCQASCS

Structure (SMILES)	EC50	Emax
Cn1c(CN2CCC(c3cccc(OCc4ccc(C#N)cn4)n3)CC2)nc2c(OC(F)F)cc(C(=O)O)cc21 [Compound 213, 2-((4-(6-((5-Cyanopyridin-2-yl)methoxy)pyridin-2-yl)piperidin-1-yl)methyl)-4-(difluoromethoxy)-1-methyl-1H-benzo[d]imidazole-6-carboxylic acid]	100 to 1000 nM	> 85%
Cn1c(CN2CCC(c3cc(OCc4ccc(Cl)cc4F)ccc3F)CC2)nc2c(OC(F)F)cc(C(=O)O)cc21 [Compound 167, 2-((4-(5-((4-Chloro-2-fluorobenzyl)oxy)-2-fluorophenyl)piperidin-1-yl)methyl)-4-(difluoromethoxy)-1-methyl-1H-benzo[d]imidazole-6-carboxylic acid]	> 1000 nM	25 to 50%
COc1c(Cl)ccc(COc2cccc(C3CCN(Cc4nc5c(OC(F)F)cc(C(=O)O)cc5n4C)CC3)n2)c1F [Compound 212, 2-((4-(6-((4-Chloro-2-fluoro-3-methoxybenzyl)oxy)pyridin-2-yl)piperidin-1-yl)methyl)-4-(difluoromethoxy)-1-methyl-1H-benzo[d]imidazole-6-carboxylic acid]	100 to 1000 nM	> 85%
COc1cc(C(=O)O)cc2c1nc(CN1CCC(c3cccc4c3O[C@@](C)(c3ccc(Cl)cn3)O4)CC1)n2C(C)C [Compound 86, (S)-2-((4-(2-(5-Chloropyridin-2-yl)-2-methylbenzo[d][1,3]dioxol-4-yl)piperidin-1-yl)methyl)-1-isopropyl-4-methoxy-1H-benzo[d]imidazole-6-carboxylic acid]	100 to 1000 nM	> 85%
Cn1c(CN2CCC(c3cccc4c3O[C@H](c3ccc(C#N)cc3F)CO4)CC2)nc2c(OCCF)cc(C(=O)O)cc21 [Compound 315, (R)-2-((4-(3-(4-Cyano-2-fluorophenyl)-2,3-dihydrobenzo[b][1,4]dioxin-5-yl)piperidin-1-yl)methyl)-4-(2-fluoroethoxy)-1-methyl-1H-benzo[d]imidazole-6-carboxylic acid]	10 to 100 nM	> 85%
Cn1c(CN2CCC(c3cccc(OCc4ccc(Cl)cc4F)n3)CC2)nc2c(OCC(F)F)cc(C(=O)O)cc21 [Compound 169, 2-((4-(6-((4-Chloro-2-fluorobenzyl)oxy)pyridin-2-yl)piperidin-1-yl)methyl)-4-(2,2-difluoroethoxy)-1-methyl-1H-benzo[d]imidazole-6-carboxylic acid]	< 10 nM	> 85%
Cn1c(CN2CCC(c3cccc(OCc4ccc(Cl)cc4F)n3)CC2)nc2c(OC3CC3)cc(C(=O)O)cc21 [Compound 215, 2-((4-(6-((4-Chloro-2-fluorobenzyl)oxy)pyridin-2-yl)piperidin-1-yl)methyl)-4-cyclopropoxy-1-methyl-1H-benzo[d]imidazole-6-carboxylic acid]	< 10 nM	> 85%
COc1cc(C(=O)O)cc2c1nc([C@@H](C)N1CCC(c3cccc4c3O[C@@](C)(c3ccc(Cl)cn3)O4)CC1)n2C [Compound 97, 2-((R)-1-(4-((S)-2-(5-chloropyridin-2-yl)-2-methylbenzo[d][1,3]dioxol-4-yl)piperidin-1-yl)ethyl)-4-methoxy-1-methyl-1H-benzo[d]imidazole-6-carboxylic acid]	> 1000 nM	> 85%
Cn1c(CN2CCC(c3cccc(OCc4ccc(C#N)cc4F)n3)CC2)nc2c(Oc3ccc(F)cc3)cc(C(=O)O)cc21 [Compound 352, 2-((4-(6-((4-Cyano-2-fluorobenzyl)oxy)pyridin-2-yl)piperidin-1-yl)methyl)-4-(4-fluorophenoxy)-1-methyl-1H-benzo[d]imidazole-6-carboxylic acid]	100 to 1000 nM	> 85%
COc1cc(C(=O)O)cc2c1nc([C@H](C)N1CCC(c3cccc4c3O[C@@](C)(c3ccc(Cl)cn3)O4)CC1)n2C [Compound 96, 2-((S)-1-(4-((S)-2-(5-Chloropyridin-2-yl)-2-methylbenzo[d][1,3]dioxol-4-yl)piperidin-1-yl)ethyl)-4-methoxy-1-methyl-1H-benzo[d]imidazole-6-carboxylic acid]	10 to 100 nM	> 85%
Cn1c(CN2CCC(c3cccc(OCc4ccc(Cl)cc4F)n3)CC2)nc2c(Cl)cc(C(=O)O)cc21 [Compound 218, 4-chloro-2-((4-(6-((4-chloro-2-fluorobenzyl)oxy)pyridin-2-yl)piperidin-1-yl)methyl)-1-methyl-1H-benzo[d]imidazole-6-carboxylic acid]	10 to 100 nM	> 85%
COc1c(F)c(C(=O)O)cc2nc(CN3CCC(c4cccc(OCc5ccc(C#N)cc5F)n4)CC3)n(C)c12 [Compound 336, 2-((4-(6-((4-Cyano-2-fluorobenzyl)oxy)pyridin-2-yl)piperidin-1-yl)methyl)-6-fluoro-7-methoxy-1-methyl-1H-benzo[d]imidazole-5-carboxylic acid]	> 1000 nM	< 25%
Cn1c(CN2CCC(c3cccc(OCc4ccc(Cl)cc4)n3)CC2)nc2c(OC(F)F)cc(C(=O)O)cc21 [Compound 252, 2-((4-(6-((4-Chlorobenzyl)oxy)pyridin-2-yl)piperidin-1-yl)methyl)-4-(difluoromethoxy)-1-methyl-1H-benzo[d]imidazole-6-carboxylic acid]	10 to 100 nM	
CCC(F)Oc1cc(C(=O)O)cc2c1nc(CN1CCC(c3cccc(OCc4ccc(Cl)cc4F)n3)CC1)n2C (stereo not drawn) [Compound 351, 2-((4-(6-((4-Chloro-2-fluorobenzyl)oxy)pyridin-2-yl)piperidin-1-yl)methyl)-4-(1-fluoropropoxy)-1-methyl-1H-benzo[d]imidazole-6-carboxylic acid]	10 to 100 nM	> 85%
[2H]C([2H])([2H])Oc1cc(C(=O)O)cc2c1nc(CN1CCC(c3cccc(OCc4ccc(C#N)cc4F)n3)CC1)n2C[C@@H]1CCO1 [Compound 108, (S)-2-((4-(6-((4-Cyano-2-fluorobenzyl)oxy)pyridin-2-yl)piperidin-1-yl)methyl)-4-(methoxy-d3)-1-(oxetan-2-ylmethyl)-1H-benzo[d]imidazole-6-carboxylic acid]	< 10 nM	> 85%
O=C(O)c1ccc2c(nc(CN3CCC(c4cccc(OCc5ccc(Cl)cc5F)n4)CC3)n2C[C@@H]2CCO2)c1O [Compound 245, (S)-2-((4-(6-((4-Chloro-2-fluorobenzyl)oxy)pyridin-2-yl)piperidin-1-yl)methyl)-4-hydroxy-1-(oxetan-2-ylmethyl)-1H-benzo[d]imidazole-5-carboxylic acid]	< 10 nM	> 85%
CCOc1cc(C(=O)O)cc2c1nc(CN1CCC(c3cccc4c3O[C@H](c3ccc(C#N)cc3F)CO4)CC1)n2C [Compound 288, (R)-2-((4-(3-(4-Cyano-2-fluorophenyl)-2,3-dihydrobenzo[b][1,4]dioxin-5-yl)piperidin-1-yl)methyl)-4-ethoxy-1-methyl-1H-benzo[d]imidazole-6-carboxylic acid]	10 to 100 nM	> 85%
C[C@@H](F)Oc1cc(C(=O)O)cc2c1nc(CN1CCC(c3cccc(OCc4ccc(Cl)cc4F)n3)CC1)n2C (single isomer, unassigned) [Compound 361]	10 to 100 nM	> 85%
CC(CF)Oc1cc(C(=O)O)cc2c1nc(CN1CCC(c3cccc(OCc4ccc(Cl)cc4F)n3)CC1)n2C (single isomer, unassigned) [Compound 262]	10 to 100 nM	> 85%
N#Cc1ccc(COc2cccc(C3CCN(Cc4nc5c6c(c(C(=O)O)cc5n4C[C@@H]4CCO4)OCCO6)CC3)n2)c(F)c1 [Compound 100, (S)-2-((4-(6-((4-Cyano-2-fluorobenzyl)oxy)pyridin-2-yl)piperidin-1-yl)methyl)-3-(oxetan-2-ylmethyl)-7,8-dihydro-3H-[1,4]dioxino[2′,3′:3,4]benzo[1,2-d]imidazole-5-carboxylic acid]	< 10 nM	> 85%
COc1cc(C(=O)O)c(F)c2c1nc(CN1CCC(c3cccc(OCc4ccc(C#N)cc4F)n3)CC1)n2C[C@@H]1CCO1 [Compound 117, (S)-2-((4-(6-((4-Cyano-2-fluorobenzyl)oxy)pyridin-2-yl)piperidin-1-yl)methyl)-7-fluoro-4-methoxy-1-(oxetan-2-ylmethyl)-1H-benzo[d]imidazole-6-carboxylic acid]	< 10 nM	> 85%
Cn1c(CN2CCC(c3cccc(OCc4c(F)cc(Cl)cc4F)n3)CC2)nc2c(OC(F)F)cc(C(=O)O)cc21 [Compound 153, 2-((4-(6-((4-Chloro-2,6-difluorobenzyl)oxy)pyridin-2-yl)piperidin-1-yl)methyl)-4-(difluoromethoxy)-1-methyl-1H-benzo[d]imidazole-6-carboxylic acid]	10 to 100 nM	> 85%
COCCn1c(CN2CCC(c3cccc(OCc4ccc(C#N)cc4F)n3)CC2)nc2c(OC(F)F)cc(C(=O)O)cc21 [Compound 106, 2-((4-(6-((4-Cyano-2-fluorobenzyl)oxy)pyridin-2-yl)piperidin-1-yl)methyl)-4-(difluoromethoxy)-1-(2-methoxyethyl)-1H-benzo[d]imidazole-6-carboxylic acid]	< 10 nM	> 85%
CC(Oc1ccccc1C1CCN(Cc2nc3c(OC(F)F)cc(C(=O)O)cc3n2C)CC1)c1ccc(C#N)cc1F (single isomer, unassigned) [Compound 174]	> 1000 nM	< 25%
Cn1c(CN2CCN(c3cccc(OCc4ccc(Cl)cc4F)n3)CC2)nc2c(OC(F)F)cc(C(=O)O)cc21 [Compound 150, 2-((4-(6-((4-Chloro-2-fluorobenzyl)oxy)pyridin-2-yl)piperazin-1-yl)methyl)-4-(difluoromethoxy)-1-methyl-1H-benzo[d]imidazole-6-carboxylic acid]	10 to 100 nM	> 85%
Cn1c(CN2CC=C(c3cccc(OCc4ccc(Cl)cc4F)c3)CC2)nc2c(OC(F)F)cc(C(=O)O)cc21 [Compound 159, 2-((4-(3-((4-Chloro-2-fluorobenzyl)oxy)phenyl)-3,6-dihydropyridin-1(2H)-yl)methyl)-4-(difluoromethoxy)-1-methyl-1H-benzo[d]imidazole-6-carboxylic acid]	100 to 1000 nM	> 85%
